According to patent US20160113905A1, “Polymer composition and polymer material” (INDUSTRIAL TECHNOLOGY RESEARCH INSTITUTE, priority 2012, published 2016):
Several values for one entry are separate records, joined by “and”; a condition that tells them apart may be missing. Equal values may be shown once.

What follows are molecules tested against T1, matrix metalloproteinase-9 (Homo sapiens, UniProt P14780) (assay: not given).
T1 sequence (P14780 107-707 limits assumed, species assumed): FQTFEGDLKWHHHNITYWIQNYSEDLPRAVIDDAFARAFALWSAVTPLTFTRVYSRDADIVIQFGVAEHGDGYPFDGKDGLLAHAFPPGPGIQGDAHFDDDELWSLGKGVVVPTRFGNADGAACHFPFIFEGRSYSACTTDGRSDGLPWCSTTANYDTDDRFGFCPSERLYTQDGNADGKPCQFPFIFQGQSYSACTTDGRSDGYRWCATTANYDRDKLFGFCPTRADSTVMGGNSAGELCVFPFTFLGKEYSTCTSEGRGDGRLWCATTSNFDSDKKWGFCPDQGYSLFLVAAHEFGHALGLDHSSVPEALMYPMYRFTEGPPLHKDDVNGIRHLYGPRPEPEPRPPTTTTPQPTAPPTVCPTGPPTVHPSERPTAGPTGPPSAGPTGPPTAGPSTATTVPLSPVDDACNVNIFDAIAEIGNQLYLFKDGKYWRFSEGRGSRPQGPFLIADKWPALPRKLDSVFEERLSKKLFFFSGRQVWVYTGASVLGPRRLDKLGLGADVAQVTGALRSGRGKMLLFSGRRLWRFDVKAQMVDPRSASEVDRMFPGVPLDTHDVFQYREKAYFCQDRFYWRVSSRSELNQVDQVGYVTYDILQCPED
`CC(C)(C)OC(=O)N[C@@H](Cc1c[nH]cn1)C(=O)O` [BocHis, Boc-histidine, reference compound] gave an inhibition of 76.8%. With “histidine grafted-hydroxypropyl methylcellulose derivative [Lot 5]” the inhibition was 33.2%. With “histidine grafted-hydroxypropyl methylcellulose derivative [Lot 6]” the inhibition was 42.4% and 37.3%. “histidine grafted-hydroxypropyl methylcellulose derivative [Lot 7]” gave an inhibition of 36.4%. In the case of “histidine grafted-poly(ethylene vinyl-co-alcohol) derivative [Lot 3]”, the inhibition is reported as 43.7%. With “histidine grafted-poly(ethylene vinyl-co-alcohol) derivative [Lot 4]” the inhibition was 38.2%. With “histidine grafted-polyvinyl alcohol derivative [Lot 2]” the inhibition was 41%.

Biological target: T1, matrix metalloproteinase-9
Experiment: not given
Remark: another data set of the same source
“histidine grafted-poly(ethylene vinyl-co-alcohol) derivative [EVOH-g-BocHis]” was tested, and the inhibition was 26.2% and 22.9%.

What follows are molecules tested against T1, matrix metalloproteinase-9 (assay: Inhibition test of matrix metalloproteinase-9 activity (fluorogenic substrate, activated pro-MMP-9)).
Method: Step 1: Activation of Pro-Matrix Metalloproteinase-9
100 nM APMA (final concentration 1 M) as added to a 10 μg/ml of pro-matrix metalloproteinase-9 solution (R&D), and reacted in a 37° C. incubator for 2 hours to convert pro matrix metalloproteinase-9 to activated pro-matrix metalloproteinase-9
The activated pro-matrix metalloproteinase-9 was diluted with matrix metalloproteinase-9 activity analysis buffer (50 mM Tris, 10 mM CaCl2, 150 mM NaCl, 0.05% Brij-35(w/v), pH 7.5) to a concentration of 10 ng/ml. Activated pro-matrix metalloproteinase-9 was added to each test sample and placed in a 37° C. incubator for reaction for 2 or 24 hours. The negative control group contained no activated pro-matrix metalloproteinase-9 solution to test the response of the sample, and positive control added metalloproteinase-9 activity inhibitor, 1,10-Phenanthroline (1,10-PT) (final concentration: 0.1 mM), to the activated pro-matrix metalloproteinase-9 solution.
Step 3: Analysis for Matrix Metalloproteinase-9
The activated pro-matrix metalloproteinase-9 solution after being reacted with the material was taken in a 96-well black plate. Equal volume of substrate for matrix metalloproteinase-9 was added to the 96-well black plate and reacted in a 37° C. incubator for 0.5-1 hour, and then the fluorescence (Ex/Em=320/405 nm) of the reaction was determined by a high sensitivity fluorescence reader (Flexstation3).
Molecule `CC(C)(C)OC(=O)N[C@@H](Cc1c[nH]cn1)C(=O)O` [BocHis, Boc-histidine, reference compound] has an IC50 of 10.3 mM.
